{
  "source": "patent US20240101599A1",
  "about": "“PEPTIDE, CELL GROWTH PROMOTER, PROTEIN PRODUCTION PROMOTER, CULTURE MEDIUM, CELL GROWTH METHOD USING PEPTIDE, AND PROTEIN PRODUCTION METHOD USING PEPTIDE” (Maruhachi Muramatsu, Inc., priority 2020, published 2024)",
  "test_system": "CHO DP-12",
  "assay": "Cell growth test and protein production test on each peptide and combination of peptides on coating agent",
  "format": "cell-based",
  "settings": "one type of tripeptide: GPP 1.1 mM, DGP 2.2 mM, GEK 2.1 mM, AGK 2.0 mM, 5 days; for Amount of protein produced, Average / Viability, Average: average n=3; for Amount of protein produced, Average / Amount of protein produced, 1 / Amount of protein produced, 2 / Amount of protein produced, 3: ELISA; for Cells cell count, Average: poly-L-lysine coating, n=3; for Amount of protein produced, 1 / Viability, 1: replicate 1; for Amount of protein produced, 2 / Viability, 2: replicate 2; for Amount of protein produced, 3 / Viability, 3: replicate 3",
  "protocol": "Peptides having the sequences of Gly-Pro-Pro (GPP), Asp-Gly-Pro (DGP), Gly-Glu-Lys (GEK), and Ala-Gly-Lys (AGK) were synthesized to prepare each peptide solution such that the concentration was a concentration at which the cell number increased the most within a range of 0 mM to 5 mM. In other words, Gly-Pro-Pro (GPP) was adjusted to 11 mM, Asp-Gly-Pro (DGP) was adjusted to 22 mM, Gly-Glu-Lys (GEK) was adjusted to 21 mM, and Ala-Gly-Lys (AGK) was adjusted to 20 mM, and an amount of 1/10 of the total culture medium volume was added to each well immediately before the cell culture test such that final concentrations were 1.1 mM, 2.2 mM, 2.1 mM, and 2.0 mM, respectively. Poly-L-lysine (Peptide Institute, Inc., Poly-L-Lysine Hydrochloride, code: 3075) was prepared to 0.1 mg/mL, and 200 μL was dispensed into each well of a 24-well plate, which was left to stand in an incubator at 37° C. for 2 hours. After removing the residual liquid with an aspirator, rinsing was performed with distilled water, irradiation was performed with a UV lamp in a clean bench without a lid, and drying was performed overnight to sterilize. A cell suspension prepared such that CHO DP-12 (ATCC, Cat. No. CRL-12445) was at 2×10^4 cells/well and 500 μL was seeded in a 24-well plate and cultured in an incubator at 37° C. and 5% CO2 for 24 hours. As a culture medium, a DMEM basal medium in which 200 nM of methotrexate and 2 μg/mL of insulin were blended in a DMEM culture medium (Gibco) containing 10% FBS was used.\nAfter removing the culture medium from each well and washing with the DMEM basal medium (500 μL), 450 μL of a new DMEM basal medium was dispensed into each well, and each peptide solution (50 μL) was added (total 500 μL/well) to perform culture for 5 days.\nAs peptides, in addition to single GPP, DGP, GEK, and AGK, combinations of GPP+GEK, GPP+AGK, DGP+GEK, GEK+AGK, DGP+AGK, GPP+GEK+AGK, GPP+DGP+AGK, and GPP+DGP+GEK were used. A similar culture test was performed using a system containing neither peptide nor FBS as a comparative sample.\nIn order to measure the amount of protein produced, 100 μL of the culture medium supernatant was recovered in a 1.5 mL tube and diluted to quantitatively determine the amount of protein produced by an ELISA method.\nIn order to recover the cells, the culture medium in each well was recovered in a 1.5 mL tube to be rinsed with 200 μL of the DMEM basal medium, and the rinsed liquid was also recovered in the same 1.5 mL tube. Thereafter, 100 μL of trypsin was added and incubated for 3 minutes. After rinsing with 300 μL of the DMEM basal medium containing 10% FBS, the rinsed liquid was also recovered in the same 1.5 mL tube. After rinsing again with 200 μL of the DMEM basal medium containing 10% FBS, the rinsed liquid was also recovered in the same 1.5 mL tube.\nA centrifugation operation was performed on the cells recovered in the 1.5 mL tube. The centrifugation conditions were 1,000 rpm, 10 minutes, and 4° C.\nThe supernatant was removed, and 300 μL of Cold PBS (phosphate buffered saline) was added to perform a centrifugation operation under the same conditions. The present operation was repeated twice.\nSuspension was carried out with 100 μL of Binding Buffer, and 2 μL of propidium iodide (PI) was added and stirred in the tube to cause a reaction for 15 minutes at room temperature and with light shielding. Thereafter, the viable cell count and the cell viability were measured with a flow cytometer.\nThe above preparation, culture, and measurement were performed with n=3. Table 17, FIG. 17, Table 20, FIG. 20, Table 23, and FIG. 23 show the viable cell count in each peptide solution. Table 18, FIG. 18, Table 21, FIG. 21, Table 24, and FIG. 24 show the cell viability in each peptide solution. Table 19, FIG. 19, Table 22, FIG. 22, Table 25, and FIG. 25 show the amount of protein produced in each peptide solution.",
  "note": "Peptide text beside a SMILES is read from it.",
  "data": [
    {"compound": "C[C@H](N)C(=O)NCC(=O)N[C@@H](CCCCN)C(=O)O", "note": "[AGK, Ala-Gly-Lys] (H-Ala-Gly-Lys-OH; N-terminus and C-terminus assumed)", "values": [
      {"measurement": "Amount of protein produced, Average", "result": 6.92, "unit": "mg/L"},
      {"measurement": "Viability, Average", "result": 88.5},
      {"measurement": "Cells cell count, Average", "result": "19.0887 ×10^4"},
      {"measurement": "Amount of protein produced, 1", "result": 7.36, "unit": "mg/L"},
      {"measurement": "Viability, 1", "result": 89.0},
      {"measurement": "Amount of protein produced, 2", "result": 6.61, "unit": "mg/L"},
      {"measurement": "Viability, 2", "result": 88.5},
      {"measurement": "Amount of protein produced, 3", "result": 6.78, "unit": "mg/L"},
      {"measurement": "Viability, 3", "result": 88.1}
    ]},
    {"compound": "NCCCC[C@H](NC(=O)[C@H](CCC(=O)O)NC(=O)CN)C(=O)O", "note": "[GEK, Gly-Glu-Lys] (H-Gly-Glu-Lys-OH; N-terminus and C-terminus assumed)", "values": [
      {"measurement": "Amount of protein produced, Average", "result": 5.59, "unit": "mg/L"},
      {"measurement": "Viability, Average", "result": 86.9},
      {"measurement": "Cells cell count, Average", "result": "15.9345 ×10^4"},
      {"measurement": "Amount of protein produced, 1", "result": 6.13, "unit": "mg/L"},
      {"measurement": "Viability, 1", "result": 86.5},
      {"measurement": "Amount of protein produced, 2", "result": 4.59, "unit": "mg/L"},
      {"measurement": "Viability, 2", "result": 87.4},
      {"measurement": "Amount of protein produced, 3", "result": 6.06, "unit": "mg/L"},
      {"measurement": "Viability, 3", "result": 86.7}
    ]},
    {"compound": "Asp-Gly-Pro [DGP]", "values": [
      {"measurement": "Amount of protein produced, Average", "result": 5.24, "unit": "mg/L"},
      {"measurement": "Viability, Average", "result": 86.9},
      {"measurement": "Cells cell count, Average", "result": "14.6333 ×10^4"},
      {"measurement": "Amount of protein produced, 1", "result": 5.37, "unit": "mg/L"},
      {"measurement": "Viability, 1", "result": 86.3},
      {"measurement": "Amount of protein produced, 2", "result": 4.90, "unit": "mg/L"},
      {"measurement": "Viability, 2", "result": 87.3},
      {"measurement": "Amount of protein produced, 3", "result": 5.44, "unit": "mg/L"},
      {"measurement": "Viability, 3", "result": 87.2}
    ]},
    {"compound": "Gly-Pro-Pro [GPP]", "values": [
      {"measurement": "Amount of protein produced, Average", "result": 5.86, "unit": "mg/L"},
      {"measurement": "Viability, Average", "result": 88.2},
      {"measurement": "Cells cell count, Average", "result": "15.5502 ×10^4"},
      {"measurement": "Amount of protein produced, 1", "result": 5.78, "unit": "mg/L"},
      {"measurement": "Viability, 1", "result": 88.9},
      {"measurement": "Amount of protein produced, 2", "result": 5.31, "unit": "mg/L"},
      {"measurement": "Viability, 2", "result": 87.9},
      {"measurement": "Amount of protein produced, 3", "result": 6.50, "unit": "mg/L"},
      {"measurement": "Viability, 3", "result": 87.9}
    ]}
  ]
}
